Here are results for 11 compounds from ChEMBL document CHEMBL1201862, “PubChem BioAssay data set” (2004).

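Interpolation was linear, between the two tested concentrations surrounding the appropriate level; five concentrations were tested over 48 hours in 96-well plates. Here, GI50 denotes the concentration required for 50% inhibition of growth.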 Activity calls are given as the source filed them. Rule as the data show it: active = GI50 up to about 1.1 µM and inactive = higher.

Common to all, as to experiment: growth of human tumour cells (NCI), 48 h
Experiment [1] relates to A549.
Experiment [2] has as its system CAKI-1.
Experiment [3] relates to EKVX.
Experiment [4] deals with Hs-578T.
The subject of experiment [5] is K562.
The test system of experiment [6] is MCF7.
Experiment [7] has as its system MOLT-4.
Experiment [8] has as its system NCI-H23.
The test system of experiment [9] is NCI-H460.
For experiment [10], the system named is OVCAR-3.
Experiment [11] relates to OVCAR-5.
For experiment [12], the system named is OVCAR-8.
For experiment [13], the system named is SF-295.
Experiment [14] has as its system SK-MEL-2.
In experiment [15] the test system is SN12C.
Experiment [16] deals with SR.
The subject of experiment [17] is TK-10.
For experiment [18], the system named is DU-145.
In experiment [19] the test system is RPMI-8226.

Regarding `O=c1n(-c2ccccc2)c(=O)n2c(-c3ccccc3)c(-c3ccccc3)n12`, the GI50 in experiment [1] is > 100 µM (inactive); in [2], > 100 µM (inactive); in experiment [3], > 100 µM (inactive); in experiment [4] it was > 100 µM (inactive); in experiment [5], 80.9 µM (inactive); in experiment [6], > 100 µM (inactive). For the same compound, the GI50 was 37.4 µM (inactive) in experiment [7]; > 100 µM (inactive) in experiment [8]; 91 µM (inactive) in [9]; > 100 µM (inactive) in [10]; > 100 µM (inactive) in experiment [11]; > 100 µM (inactive) in [12]. The GI50 in experiment [13] is 84.1 µM (inactive); in experiment [14] it was > 100 µM (inactive); in [15], > 100 µM (inactive); in experiment [16], 27 µM (inactive); in experiment [17], > 100 µM (inactive).

Regarding `Cc1[nH]nc(C(=O)N/N=C/c2cccs2)c1/N=N\N(C)C`, the GI50 in experiment [1] was 10.5 µM (inactive); in experiment [2], 5.78 µM (inactive); in experiment [18] it was 9.53 µM (inactive); in experiment [3], 39.4 µM (inactive); in [4] it was 34.5 µM (inactive); in experiment [5], 3.9 µM (inactive). Moreover, the GI50 in experiment [6] is 3.94 µM (inactive); in experiment [7], 3.75 µM (inactive); in experiment [8], 12.6 µM (inactive); in experiment [9], 3.43 µM (inactive); in experiment [10], 22.4 µM (inactive); in experiment [11] it was 29.7 µM (inactive). For the same compound, the GI50 in experiment [12] is 11.6 µM (inactive); in experiment [19] it was 18.3 µM (inactive); in experiment [13] it was 15.2 µM (inactive); in experiment [14], 35.2 µM (inactive); in [15] it was 22 µM (inactive); in experiment [17] it was 23.5 µM (inactive).

`CCC1=CC2Cc3nc4cc(Cl)ccc4c(N)c3C(C1)C2` (stereo not drawn): the GI50 is 7.59 µM (inactive) in experiment [1]; 2.26 µM (inactive) in [2]; 11.2 µM (inactive) in [18]; 3.18 µM (inactive) in experiment [3]; 5.08 µM (inactive) in [4]; 2.58 µM (inactive) in experiment [5]. Also, the GI50 was 3.25 µM (inactive) in [6]; 0.822 µM (active) in experiment [7]; 5.52 µM (inactive) in experiment [8]; 4.07 µM (inactive) in [9]; 7.29 µM (inactive) in experiment [10]; 5.62 µM (inactive) in experiment [11]. Moreover, the GI50 in [12] is 12.8 µM (inactive); in [19], 2.03 µM (inactive); in experiment [13], 4.45 µM (inactive); in experiment [14] it was 5.45 µM (inactive); in experiment [15] it was 12.5 µM (inactive); in [17], 4.38 µM (inactive).

In the case of `COc1ccc(C(=O)N(C(=S)OCCOc2ccccc2)c2ccccc2)cc1`, the GI50 in experiment [1] is 31.1 µM (inactive); in experiment [2], 47 µM (inactive); in experiment [18], 37.1 µM (inactive); in experiment [3], 31.6 µM (inactive); in experiment [4] it was 65.2 µM (inactive); in experiment [5], 23.8 µM (inactive). Further, the GI50 was 42 µM (inactive) in experiment [6]; 19.7 µM (inactive) in experiment [7]; 32.4 µM (inactive) in experiment [8]; 34.1 µM (inactive) in [9]; 38 µM (inactive) in experiment [10]; 88.3 µM (inactive) in [11]. Besides, the GI50 was 52.2 µM (inactive) in [12]; 14.6 µM (inactive) in [19]; 29.2 µM (inactive) in [13]; 22.9 µM (inactive) in experiment [14]; 43.8 µM (inactive) in [15]; 61 µM (inactive) in experiment [17].

Turning to `Cc1[nH]c2ncn3nc(C(Cl)(Cl)Cl)nc3c2c1Cc1ccccc1`, the GI50 in [1], in [2], in experiment [18], in experiment [3], in experiment [4] and in experiment [6] was > 100 µM (inactive) throughout. Also, the GI50 in experiment [7], in experiment [8], in experiment [9], in experiment [10], in experiment [11] and in experiment [12] was > 100 µM (inactive) in each case. Further, the GI50 in experiment [19], in experiment [13], in experiment [14], in [15] and in experiment [17] was > 100 µM (inactive) each time.

`CCOC(=O)C(NC(=O)c1ccccc1)(Nc1cc(C)on1)C(F)(F)F` (stereo not drawn): the GI50 in experiment [1], in [2], in experiment [18], in [3], in experiment [4] and in experiment [5] was > 100 µM (inactive) throughout. The GI50 in [6], in experiment [7], in experiment [8], in [10], in experiment [11] and in experiment [12] was > 100 µM (inactive) throughout. Also, the GI50 in experiment [19], in experiment [13], in [14], in experiment [15] and in experiment [17] was > 100 µM (inactive) in each case.

As for `Fc1cccc(F)c1C(Nc1nncs1)Nc1nncs1`, the GI50 is > 100 µM (inactive) in [1]; > 100 µM (inactive) in experiment [2]; > 100 µM (inactive) in experiment [18]; > 100 µM (inactive) in experiment [4]; > 100 µM (inactive) in [5]; 97.7 µM (inactive) in experiment [6]. Also, the GI50 in experiment [8], in experiment [9], in experiment [10], in [11], in experiment [12] and in experiment [19] was > 100 µM (inactive) each time. In addition, the GI50 in [13], in experiment [14], in experiment [15] and in [17] was > 100 µM (inactive) in each case.

Turning to `NCCCCNCCCNC(=O)c1csc(-c2nc(CCN)sc2Cl)n1`, the GI50 in experiment [1], in experiment [18], in [3], in [4], in experiment [5] and in experiment [6] was > 100 µM (inactive) each time. The GI50 in experiment [7], in [8], in [9], in experiment [10], in experiment [11] and in experiment [12] was > 100 µM (inactive) in each case. Besides, the GI50 in experiment [19], in [13], in experiment [15] and in experiment [17] was > 100 µM (inactive) each time.

As for `CC(C)(C)OC(=O)N1CCC[C@H]1CSC[C@@H]1CCCN1C(=O)OC(C)(C)C`, the GI50 in [1] is 24.4 µM (inactive); in experiment [2] it was 32.4 µM (inactive); in experiment [18] it was 44 µM (inactive); in experiment [3], 32.8 µM (inactive); in [4], 27 µM (inactive); in experiment [5], 24.5 µM (inactive). Also, the GI50 in experiment [6] was 28.6 µM (inactive); in experiment [7], 16.7 µM (inactive); in experiment [8], 20.7 µM (inactive); in [9], 34.3 µM (inactive); in experiment [10], 22.4 µM (inactive); in experiment [11], 34.2 µM (inactive). The GI50 in [12] is 29.3 µM (inactive); in experiment [13], 30.8 µM (inactive); in experiment [14], 18.3 µM (inactive); in [15], 32.2 µM (inactive); in [17], 56.9 µM (inactive).

Take `COc1ccc(C(=O)C#Cc2cn(C3CC(O)C(CO)O3)c(=O)[nH]c2=O)cc1` (stereo not drawn): the GI50 is > 100 µM (inactive) in experiment [1]; > 100 µM (inactive) in [2]; > 100 µM (inactive) in experiment [18]; > 100 µM (inactive) in experiment [3]; 30.6 µM (inactive) in [4]; 36.5 µM (inactive) in experiment [5]. Besides, the GI50 in experiment [6] is 35.5 µM (inactive); in experiment [7], 39.4 µM (inactive); in experiment [8] it was > 100 µM (inactive); in experiment [9], > 100 µM (inactive); in [10] it was 19.2 µM (inactive); in experiment [12], > 100 µM (inactive). In addition, the GI50 in experiment [19] is > 100 µM (inactive); in [13], > 100 µM (inactive); in experiment [14], 56.4 µM (inactive); in experiment [15], 28.7 µM (inactive); in [17] it was 78.3 µM (inactive).

As for `C[C@H](CCC1=NCCN1)[C@H]1CC[C@H]2[C@@H]3[C@H](O)C[C@@H]4C[C@H](O)CC[C@]4(C)[C@H]3CC[C@]12C`, the GI50 in experiment [2] is 24 µM (inactive); in experiment [18], 14.3 µM (inactive); in [3], 17.9 µM (inactive); in experiment [4], 12.4 µM (inactive); in [5], 6.3 µM (inactive); in experiment [6], 15.2 µM (inactive). Further, the GI50 in [7] was 11.1 µM (inactive); in experiment [8], 14.3 µM (inactive); in experiment [9] it was 12 µM (inactive); in experiment [10], 13.7 µM (inactive); in experiment [11], 14.5 µM (inactive); in experiment [12], 15.6 µM (inactive). Besides, the GI50 is 14.7 µM (inactive) in [19]; 15.5 µM (inactive) in experiment [13]; 16.3 µM (inactive) in [14]; 21.1 µM (inactive) in experiment [15]; 13.8 µM (inactive) in experiment [17].
